This is an account of results in patent US20090062401A1, “DECALINE-DERIVED COMPOUNDS AS […] ACTIVE AGENTS” (UNIVERSITAT DORTMUND, priority 2004, published 2009).

The term IC50 denotes the concentration at which inhibition is half-maximal.

Sequence of VHR (P51452 whole entry, species assumed): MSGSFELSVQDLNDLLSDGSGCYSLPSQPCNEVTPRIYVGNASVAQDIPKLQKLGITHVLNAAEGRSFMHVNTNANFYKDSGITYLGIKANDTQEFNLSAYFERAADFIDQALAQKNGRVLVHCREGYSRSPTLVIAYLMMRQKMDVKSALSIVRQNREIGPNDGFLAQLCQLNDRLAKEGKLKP

The first assay addresses VHR (Homo sapiens, UniProt P51452). Kind of assay: VHR phosphatase inhibition, general phosphatase assay using para-nitrophenylphosphate. The format is biochemical. The conditions noted are these: read-out: IC50 Target VHR. The text has this:
(§1) Assays protocols for the other enzymes mentioned herein (MtPTPA, PP1, VHR, PTP1B) are disclosed in Schweizer R A S, Atanasov, G A, Frey B M, and Odermatt A, Mol. Cell. Endocrinol. 2003, 212, 41-49 and Barratte, B., Meijer L., Galaktionov K. & Beach D, Anticancer Res. 1992, 12, 873-880. For determination of the phosphatase activity, a general phosphatase assay using para-nitrophenylphosphate was applied.
Take `CCCCCCCCc1ccc(/C=C2\C[C@@]3(C)C(=C(C)C2=O)CCC[C@@H]3O)c(C)c1` [Compound 20, (3E,4aS,5S)-3-(2-Methyl-4-octyl-benzyliden)-4,4a,5,6,7,8-hexahydro-5-hydroxy-1,4a-dimethyl-naphthalen-2(3H)-one]: the half-inhibitory concentration (IC50) is 10 to 50 µM.
Turning to `CC1=C2CCC[C@H](O)[C@@]2(C)C/C(=C\c2ccoc2)C1=O` [Compound 62], the IC50 was in the range of 10 to 50 µM.
On to `CCOC(=O)CC1(C)C(=O)CC[C@@]2(C)C1CCC[C@@H]2O` (stereo partly drawn) [Compound 153, Ethyl-2-[(4aS,5S)-decahydro-5-hydroxy-1,4a-dimethyl-2-oxonaphthalen-1-yl]acetat], for which the IC50 lay in the range of 10 to 50 µM.
Same read-out and setting: the result for `CC1=C2CCC[C@H](O)[C@@]2(C)C/C(=C\c2ccccc2)C1=O` [Compound 18, (3E,4aS,5S)-3-benzylidene-4,4a,5,6,7,8-hexahydro-5-hydroxy-1,4a-dimethylnaphthalen-2(3H)-one] reads 10 to 50 µM; that for `C=CC[C@@]12C(=CC(=O)/C(=C/C3=CC[C@@H](C(=C)C)CC3)[C@@H]1C)CCC[C@@H]2O` [Compound 241], 10 to 50 µM; that for `COc1cc(CC2(C)C(NC3CCCCC3)CC[C@@]3(C)C2CCC[C@@H]3O)cc(OC)c1` (stereo partly drawn) [Compound 146, (1S,8aS)-5-(3,5-Dimethoxybenzyl)-6-(cyclohexylamino)-decahydro-5,8a-dimethylnaphthalen-1-ol], 10 to 50 µM.
`COc1cc(OC)c(/C=C2\C[C@]3(C)C(=O)CCCC3=C(C)C2=O)c(OC)c1` [Compound 408, (3E,4aS)-5,8a-Dimethyl-7-(2,4,6-trimethoxy-benzylidene)-3,4,8,8a-tetrahydro-2H,7H-naphthalen-1,6-dione]: the IC50 was 10 to 50 µM.
With `CC1=C2CCC[C@H](O)[C@@]2(C)C/C(=C\c2c[nH]c3ccccc23)C1=O` [Compound 115, (3E,4aS,5S)-3-[(1H-Indol-3-yl)methylen]-4,4a,5,6,7,8-hexahydro-5-hydroxy-1,4a-dimethylnaphthalen-2(3H)-one], the half-maximal inhibitory concentration (IC50) was in the range of 10 to 50 µM.
`C[C@@H]1C(O)CC[C@]2(C)C(=O)/C(=C/c3ccco3)CCC12` (stereo partly drawn) [Compound 266, (E,5S,8aS)-2-[(Furan-2-yl)methylen]-octahydro-6-hydroxy-5,8a-dimethylnaphthalen-1(2H)-one]: the IC50 was 10 to 50 µM.
Take `CC1C(=O)/C(=C/c2ccccc2OCc2ccccc2)C[C@@]2(C)C1CCC[C@@H]2O` (stereo partly drawn) [Compound 190, (E,4aS,5S)-3-[2-(Benzyloxy)-benzyliden]-octahydro-5-hydroxy-1,4a-dimethylnaphthalen-2(1H)-one]: the half-maximal inhibitory concentration (IC50) was 10 to 50 µM.
On to `CCc1ccc(/C=C2\C[C@@]3(C)C(CCC[C@@H]3O)C(C)C2=O)c(C)c1` (stereo partly drawn) [Compound 89, (E,4aS,5S)-3-(4-Ethyl-2-methylbenzyliden)-octahydro-5-hydroxy-1,4a-dimethylnaphthalen-2(1H)-one], for which the IC50 was 10 to 50 µM.
Regarding `COc1cc(OC)c(OC)cc1/C=C1\CCC2[C@H](C)C(O)CC[C@]2(C)C1=O` (stereo partly drawn) [Compound 267, (E,5S,8aS)-2-(2,4,5-Trimethoxy-benzyliden)-octahydro-6-hydroxy-5,8a-dimethylnaphthalen-1(2H)-one], the IC50 was 10 to 50 µM.
For the molecule `CC1(CCc2ccccc2)C(=O)/C(=C/c2ccc(I)cc2)CC2(C)C1CCCC21OCCO1` (centres unmarked) [Compound 402, (7′E)-7′-(4-iodo-benzylidene)-5′,8a′-dimethylhexahydro-5′-(2-phenylethyl)-2′H-spiro[1,3-dioxolane-2,1′-naphthalen]-6′(5′H)-one], the 50% inhibitory concentration (IC50) lay in the range of 10 to 50 µM.
With `CCCC(C)/C=C1\C[C@@]2(C)C(=CC1=O)CCC[C@@H]2O` (stereo partly drawn) [Compound 225, (3E,4aS,5S)-4,4a,5,6,7,8-Hexahydro-5-hydroxy-4a-methyl-3-(2-methylpentyliden)naphthalen-2(3H)-one], the IC50 lay in the range of 10 to 50 µM.
The same measure, in the same setting: the result for `C[C@H]1/C(=C\c2ccccc2)C(=O)C=C2CCC[C@H](O)[C@]21C` [Compound 203, (3E,4R,4aS,5S)-3-Benzyliden-4,4a,5,6,7,8-hexahydro-5-hydroxy-4,4a-dimethylnaphthalen-2(3H)-one] reads 10 to 50 µM; that for `CC1(Cc2ccccc2[N+](=O)[O-])C(=O)CC[C@@]2(C)C1CCC[C@@H]2O` (stereo partly drawn) [Compound 405, (4aS,5S)-5-Hydroxy-1,4a-dimethyl-1-(2-nitro-benzyl)-octahydro-naphthalen-2-one], 10 to 50 µM.
In the case of `CC1=C2CCC[C@H](O)[C@@]2(C)C/C(=C\c2ccc(Cl)cc2)C1=O` [Compound 7, (3E,4aS,5S)-3-(4-Chlorobenzyliden)-4,4a,5,6,7,8-hexahydro-5-hydroxy-1,4a-dimethylnaphthalen-2(3H)-one], the IC50 lay within 10 to 50 µM.
Take `CC1=C2CCC[C@H](O)[C@@]2(C)C/C(=C\c2c(C)c(C)c(C)c(C)c2C)C1=O` [Compound 215, (3E,4aS,5S)-3-(2,3,4,5,6-Pentamethylbenzyliden)-4,4a,5,6,7,8-hexahydro-5-hydroxy-1,4a-dimethylnaphthalen-2(3H)-one]: the IC50 is 10 to 50 µM.
On to `CC1=C2CCC[C@H](O)[C@@]2(C)C/C(=C\c2cc(C)cs2)C1=O` [Compound 19, (3E,4aS,5S)-4,4a,5,6,7,8-Hexahydro-5-hydroxy-1,4a-dimethyl-3-[(4-methylthiophen-2-yl)methylen]naphthalen-2(3H)-one], for which the IC50 was < 10 µM.
On the same count and under the same terms, the result for `C=C(C)[C@H]1CC=C(/C=C2\C[C@@]3(C)C(=CC2=O)CCC[C@@H]3O)CC1` [Compound 286, (3E,4aS,5S)-4,4a,5,6,7,8-Hexahydro-5-hydroxy-4a-methyl-3-{[(R)-4-(prop-1-en-2-yl)cyclohex-1-enyl]methylen}naphthalen-2(3H)-one] reads 10 to 50 µM; that for `CCCCCCC#Cc1ccc(/C=C2\C[C@@]3(Cc4ccccc4)C(=C(C)C2=O)CCC[C@@H]3O)cc1` [Compound 126, (3E,4aS,5S)-3-[4-(Oct-1-inyl)benzyliden]-4a-benzyl-4,4a,5,6,7,8-hexahydro-5-hydroxy-1-methylnaphthalen-2(3H)-one], 10 to 50 µM; that for `C=CC[C@@]12C(=CC(=O)/C(=C/c3ccc(C)o3)[C@@H]1C)CCC[C@@H]2O` [Compound 242, (3E,4R,4aS,5S)-4a-Allyl-4,4a,5,6,7,8-hexahydro-5-hydroxy-4-methyl-3-[(5-methylfuran-2-yl)methylen]naphthalen-2(3H)-on], 10 to 50 µM.
Consider `CC1=C2CCC[C@H](O)[C@@]2(C)C/C(=C\c2ccc(O)c(O)c2O)C1=O` [Compound 107, (3E,4aS,5S)-3-(2,3,4-Trihydroxybenzyliden)-4,4a,5,6,7,8-hexahydro-5-hydroxy-1,4a-dimethylnaphthalen-2(3H)-one], for which the IC50 is 10 to 50 µM.
As for `C[C@]12C/C(=C\c3ccc(C#Cc4ccccc4)cc3)C(=O)C=C1CCC[C@@H]2O` [Compound 136, (3E,4aS,5S)-3-[4-(2-Phenylethinyl)benzyliden]-4,4a,5,6,7,8-hexahydro-5-hydroxy-4a-methylnaphthalen-2(3H)-one], the half-maximal inhibitory concentration (IC50) lay within 10 to 50 µM.
Consider `C[C@]12C/C(=C\c3ccccc3OCc3ccccc3)C(=O)C=C1CCC[C@@H]2O` [Compound 223, (3E,4aS,5S)-3-[2-(Benzyloxy)benzyliden]-4,4a,5,6,7,8-hexahydro-5-hydroxy-4a-methylnaphthalen-2(3H)-one], for which the concentration for half-maximal inhibition (IC50) was in the range of 10 to 50 µM.

In another assay the target is T1, PTP1B (Homo sapiens, UniProt P18031).
T1 sequence (P18031 1-435): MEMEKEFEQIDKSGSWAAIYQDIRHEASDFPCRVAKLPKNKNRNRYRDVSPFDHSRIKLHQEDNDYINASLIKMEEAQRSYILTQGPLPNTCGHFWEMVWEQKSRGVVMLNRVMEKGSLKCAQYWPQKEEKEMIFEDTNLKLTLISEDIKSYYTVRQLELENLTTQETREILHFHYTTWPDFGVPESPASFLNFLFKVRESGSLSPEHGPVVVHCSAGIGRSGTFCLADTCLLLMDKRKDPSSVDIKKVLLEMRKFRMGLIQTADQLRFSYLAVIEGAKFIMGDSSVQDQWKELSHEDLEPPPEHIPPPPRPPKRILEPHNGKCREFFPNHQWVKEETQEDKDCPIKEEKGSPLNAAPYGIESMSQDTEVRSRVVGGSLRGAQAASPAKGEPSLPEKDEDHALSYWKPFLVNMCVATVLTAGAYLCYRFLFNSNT
Description: PTP1B phosphatase inhibition, general phosphatase assay using para-nitrophenylphosphate. The class given is biochemical. The following applies: read-out: IC50 Target PTP1B.
Description: as §1
As for `C=CC[C@@]12C(=CC(=O)/C(=C/CC)[C@@H]1C)CCC[C@@H]2O` [Compound 282, (3E,4R,4aS,5S)-4a-Allyl-4,4a,5,6,7,8-hexahydro-5-hydroxy-4-methyl-3-propylidennaphthalen-2(3H)-one], the IC50 is 10 to 50 µM.
With `CCCCCCCCCC#Cc1ccc(/C=C2\C[C@@]3(C)C(=C(C)C2=O)CCC[C@@H]3O)cc1` [Compound 90, (3E,4aS,5S)-3-[4-(Undec-1-inyl)benzyliden]-4,4a,5,6,7,8-hexahydro-5-hydroxy-1,4a-dimethylnaphthalen-2(3H)-one], the IC50 lay in the range of 10 to 50 µM.
Consider `CC1=C2CCC[C@H](O)[C@@]2(C)C/C(=C\c2c(C)c(C)c(C)c(C)c2C)C1=O` [Compound 61, (3E,4aS,5S)-3-(2,3,4,5,6-Pentamethylbenzyliden)-4,4a,5,6,7,8-hexahydro-5-hydroxy-1,4a-dimethylnaphthalen-2(3H)-one], for which the IC50 was 10 to 50 µM.
Still for that read-out and setting: the result for `CC1=C2CC(C(C)C)CC(O)C2CCC1=O` (centres unmarked) [Compound 417, 5-Hydroxy-7-isopropyl-1-methyl-4,4a,5,6,7,8,-hexahydro-3H-naphthalen-2-one] reads 10 to 50 µM; that for `CC1=C2CCC[C@H](O)[C@@]2(C)C/C(=C\CCc2ccco2)C1=O` [Compound 59, (3E,4aS,5S)-3-[3-(Furan-2-yl)propyliden]-4,4a,5,6,7,8-hexahydro-5-hydroxy-1,4a-dimethylnaphthalen-2(3H)-one], 10 to 50 µM; that for `COC#Cc1ccc(/C=C2\C[C@@]3(C)C(=C(C)C2=O)CCC[C@@H]3O)cc1` [Compound 37, (3E,4aS,5S)-3-[4-(2-Methoxy-ethinyl)benzyliden]-4,4a,5,6,7,8-hexahydro-5-hydroxy-1,4a-dimethylnaphthalen-2(3H)-one], 10 to 50 µM.
As for `CC1=C2CCC[C@H](O)[C@@]2(C)C/C(=C\c2ccc(C#Cc3ccc(C)cc3)cc2)C1=O` [Compound 41, (3E,4aS,5S)-3-[4-(2-p-Tolylethinyl)benzyliden]-4,4a,5,6,7,8-hexahydro-5-hydroxy-1,4a-dimethyl-naphthalen-2(3H)-one], the IC50 was in the range of 10 to 50 µM.
